# ChEMBL document CHEMBL3868599, “Strategy for designing selective α-l-rhamnosidase inhibitors: Synthesis and biological evaluation of l-DMDP cyclic isothioureas” (Bioorg Med Chem, 2017)
# Columns and labels:
# [1] = Inhibition of Penicillium decumbens alpha-L-rhamnosidase using p-nitrophenyl-glycoside as substrate by spectrophotometric method
# [2] = Competitive inhibition of Penicillium decumbens alpha-L-rhamnosidase using p-nitrophenyl-glycoside as substrate by Lineweaver-Burk plot analysis
# [3] = Inhibition of Penicillium decumbens alpha-L-rhamnosidase
# Penicillium decumbens [4] = assay: Inhibition of Penicillium decumbens alpha-L-rhamnosidase at 1000 uM using p-nitrophenyl-glycoside as substrate by spectrophotometric method
# Prunus dulcis = assay: Inhibition of almond beta-glucosidase at 1000 uM using p-nitrophenyl-glycoside as substrate by spectrophotometric method
# [5] = Inhibition of bovine liver beta-glucosidase using p-nitrophenyl-glycoside as substrate by spectrophotometric method; parameters: species or system Bos taurus
# Homo sapiens = species on record: Homo sapiens; assay: Inhibition of human lysosomal beta-glucosidase at 1000 uM using 4-methylumbelliferyl-beta-D-glucopyranoside as substrate preincubated for 45 mins followed by substrate addition measured after 30 mins by fluorescence spectrophotometric method
# Aspergillus niger = assay: Inhibition of Aspergillus niger amyloglucosidase assessed as D-glucose level at 1000 uM using maltose as substrate measured after 10 to 30 mins
# Beta-galactosidase = target: T1, Beta-galactosidase (Bos taurus, UniProt Q58D55); assay: Inhibition of bovine liver beta-galactosidase using p-nitrophenyl-glycoside as substrate by spectrophotometric method
# T1 sequence (Q58D55 whole entry): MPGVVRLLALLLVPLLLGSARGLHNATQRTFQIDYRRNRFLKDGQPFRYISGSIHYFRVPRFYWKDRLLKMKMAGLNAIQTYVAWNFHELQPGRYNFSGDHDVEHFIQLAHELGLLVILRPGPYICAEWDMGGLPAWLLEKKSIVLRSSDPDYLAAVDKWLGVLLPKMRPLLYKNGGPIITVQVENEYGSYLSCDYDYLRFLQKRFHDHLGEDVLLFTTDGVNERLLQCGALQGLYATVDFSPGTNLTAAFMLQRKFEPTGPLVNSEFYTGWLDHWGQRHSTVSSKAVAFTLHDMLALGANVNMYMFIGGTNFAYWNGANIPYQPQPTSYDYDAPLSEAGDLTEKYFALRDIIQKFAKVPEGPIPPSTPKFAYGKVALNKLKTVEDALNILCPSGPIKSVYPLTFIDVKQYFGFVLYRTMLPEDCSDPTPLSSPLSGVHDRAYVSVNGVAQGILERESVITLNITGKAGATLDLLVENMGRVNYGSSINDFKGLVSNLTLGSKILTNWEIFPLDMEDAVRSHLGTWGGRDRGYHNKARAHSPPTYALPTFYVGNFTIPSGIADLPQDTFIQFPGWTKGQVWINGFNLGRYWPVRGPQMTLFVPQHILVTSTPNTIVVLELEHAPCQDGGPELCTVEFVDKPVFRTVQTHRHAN
# [6] = target: T2, Tissue alpha-L-fucosidase (Bos taurus) (UniProt Q2KIM0); assay: Inhibition of bovine kidney alpha-L-fucosidase at 1000 uM using p-nitrophenyl-glycoside as substrate by spectrophotometric method
# T2 sequence (whole entry): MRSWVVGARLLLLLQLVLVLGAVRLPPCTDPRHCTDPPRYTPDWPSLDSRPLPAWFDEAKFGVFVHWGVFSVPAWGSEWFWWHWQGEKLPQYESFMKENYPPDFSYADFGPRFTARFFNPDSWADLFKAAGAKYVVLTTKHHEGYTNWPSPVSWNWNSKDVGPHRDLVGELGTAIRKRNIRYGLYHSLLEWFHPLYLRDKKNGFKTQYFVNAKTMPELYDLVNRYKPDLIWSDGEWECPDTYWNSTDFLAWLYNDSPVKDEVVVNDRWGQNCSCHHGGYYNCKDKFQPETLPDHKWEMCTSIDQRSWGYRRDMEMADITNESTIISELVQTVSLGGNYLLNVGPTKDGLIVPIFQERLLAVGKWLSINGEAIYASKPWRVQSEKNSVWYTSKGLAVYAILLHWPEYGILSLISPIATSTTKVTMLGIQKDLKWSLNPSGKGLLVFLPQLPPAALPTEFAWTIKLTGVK
# [7] = target: T3, Uncharacterized protein (Sus scrofa) (UniProt I3LIR5); assay: Inhibition of porcine kidney trehalase assessed as D-glucose level at 1000 uM using maltose as substrate measured after 10 to 30 mins
# T3 sequence (whole entry): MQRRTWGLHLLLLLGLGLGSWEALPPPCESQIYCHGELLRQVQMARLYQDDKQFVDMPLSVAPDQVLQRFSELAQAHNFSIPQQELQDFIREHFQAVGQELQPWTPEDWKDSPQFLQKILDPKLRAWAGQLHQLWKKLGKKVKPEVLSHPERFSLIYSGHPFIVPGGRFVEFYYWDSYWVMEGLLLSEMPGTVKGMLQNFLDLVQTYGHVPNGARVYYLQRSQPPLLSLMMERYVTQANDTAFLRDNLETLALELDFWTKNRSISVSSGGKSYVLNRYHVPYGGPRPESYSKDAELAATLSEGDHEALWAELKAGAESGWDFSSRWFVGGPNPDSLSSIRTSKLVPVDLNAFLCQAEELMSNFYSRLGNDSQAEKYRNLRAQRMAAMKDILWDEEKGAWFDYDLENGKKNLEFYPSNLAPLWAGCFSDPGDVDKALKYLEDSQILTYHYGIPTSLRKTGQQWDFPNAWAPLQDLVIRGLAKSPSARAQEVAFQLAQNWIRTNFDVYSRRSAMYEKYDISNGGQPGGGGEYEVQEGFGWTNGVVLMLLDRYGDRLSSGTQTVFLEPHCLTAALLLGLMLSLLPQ
# Escherichia coli = assay: Inhibition of Escherichia coli beta-glucuronidase at 1000 uM using p-nitrophenyl-glycoside as substrate by spectrophotometric method
# [8] = Inhibition of rice alpha-glucosidase using p-nitrophenyl-glycoside as substrate by spectrophotometric method; parameters: species or system Oryza sativa
# [9] = Inhibition of maltase in rat small intestinal brush border membranes assessed as D-glucose level using maltose as substrate measured after 10 to 30 mins
# [10] = Inhibition of Penicillium decumbens alpha-L-rhamnosidase assessed as reduction in hydrolysis of p-nitrophenyl-a-L-rhamnopyranoside
# Penicillium decumbens [11] = assay: Potency index, ratio of 5-epi-deoxyrhamnojirimycin IC50 to compound IC50 for Penicillium decumbens alpha-L-rhamnosidase
structure (smiles),measurement,setting,value
C[C@H]1NC[C@H](O)[C@H](O)[C@H]1O,IC50,[1],10 µM
same,Ki,[2],4.2 µM
same,IC50,[3],5 µM
CCCCNC(=S)N1[C@@H](CO)[C@H](O)[C@@H](O)[C@@H]1CO,inhibition,Penicillium decumbens [4],< 50%
same,inhibition,Prunus dulcis,< 50%
same,IC50,[5],939 µM
same,inhibition,Homo sapiens,< 50%
same,inhibition,Aspergillus niger,< 50%
same,IC50,Beta-galactosidase,473 µM
same,inhibition,[6],< 50%
same,inhibition,[7],< 50%
same,inhibition,Escherichia coli,< 50%
same,IC50,[8],741 µM
same,IC50,[9],1000 µM
O[C@@H]1[C@@H]2[C@@H](O)CCCN2C[C@@H]1O,IC50,[10],0.3 µM
OC[C@H]1[C@H](O)[C@@H](O)[C@@H]2CS/C(=N/Cc3ccc(Cl)c(Cl)c3)N12,IC50,[1],0.23 µM
same,Ki,[2],0.11 µM
same,Ratio IC50,Penicillium decumbens [11],46
C[C@H](O)[C@@H]1NC[C@H](O)[C@@H]1O,IC50,[10],4 µM
C[C@H](O)[C@H]1[C@@H](O)[C@@H](O)c2nnnn21,IC50,[10],70 µM
